Experimental data taken from patent US11998008B2, “Pesticides and methods of controlling pests” (The State of Israel, Ministry of Agriculture & Rural …, priority 2017, dated 2024).
“Also recorded” adds a separate entry of the source.

Key:
[1] = test system: P. digitatum; experiment: Fungicidal activity assay on PDA in sealed Petri dish (growth inhibition and mortality); type: cell-based, Penicillium digitatum; conditions: for I - Inhibition class: 2 days; for I - Inhibition, minimal concentration that inhibited the growth: concentration to which the class above belongs
Protocol: (§1) In exemplary procedures, the fungicidial activity of the compounds listed in Table 2 were examined by activity assays as follow: Petri dishes, 90 mm in diameter, with air volume of 80 mL, contained 10-12 mL of growth medium comprising potato dextrose agar (PDA) (Acumedia, Lansing, Michigan, USA) amended with tetracycline at 12 μg/mL. Each compound was placed on a disconnected cover from an Eppendorf tube that was located in the middle of the Petri dish and a hyphae-containing plug of each test fungus was added to the culture plate. In exemplary procedures, the tested compounds trans-2-heptenal, trans-2-octenal were tested in comparison with octanal, trans-2-octen-1-ol, methyl trans-2-octenoate, trans-3-octen-2-one and 3-pentenenitrile. In addition, cyclic ketones as 2-cyclopenten-1-one, 2-cyclohexen-1-one and α-tetralone were also examined. Then, the culture plate was sealed with parafilm and incubated at room-temperature for 2 days, after which the growth of the test fungi in those dishes was compared with those in the test compound-free control dishes. At the end of the assay, the viability of each test fungus was evaluated by transferring inoculum plugs to fresh PDA plates and observing the growth that developed within the next 2 days. The test fungi used in this study included but were not limited to Alternaria alternata, Botrytis cinerea, Sclerotinia rolfsii, Penicillium digitatum, Fusarium oxysporum f. sp. radicis-cucumerinum and Rhizoctonia solani.

[2] = test system: A. alternata; experiment: as above; type: cell-based, Alternaria alternata; conditions: for I - Inhibition class: 2 days; for I - Inhibition, minimal concentration that inhibited the growth: concentration to which the class above belongs
Protocol: as §1

[3] = test system: Meloidogyne javanica second stage juveniles (J2s); experiment: Nematocidal activity: viability of J2 nematodes after 2 days exposure to the compound in a sealed box; type: in vivo; conditions: for Activity: reduction in J2s viability relative to non exposed control J2s (class): at the concentration given, 2 days incubation; for nematocidal activity in words: comparison within the series; for Activity: the most effective concentration: concentration to which the class of the same cell belongs
Text: In exemplary procedures, the sedentary root-knot nematode from the genus Meloidogyne javanica second stage juveniles (J2s) was propagated on greenhouse-grown nematode-susceptible tomato Lycopersicon esculentum cv. ‘Avigail 870’ (Hazera, Shikmim, Israel), and nematode eggs were bulk-extracted from the roots with 0.05% (v/v) sodium hypochlorite (NaOCl) followed by sucrose flotation and successive sievings through nylon filters of 300, 120, 60, and 30 μm mesh sizes (AD Sinun Technologies, Petach Tikvah, Israel). For hatching J2, extracted eggs were placed on 30-μm sieves (AD Sinun Technologies) in 0.01 M MES (2-(N-morpholino) ethanesulfonic acid hydrate) pH 6.5 buffer under aseptic conditions in darkness for 5 days, and hatching J2s were collected for further experiments.
Seven vials, each containing 300 J2 nematodes with 0.5 mL of 0.01 M 2-(N-morpholino)ethanesulfonic acid (MES) buffer, were exposed to cyclic ketone compounds in order to examine their nematocidal activity and reduction in viability. In addition, a humid environment in a sealed 1 L box was maintained by addition 5 ml of distilled H2O to a 50-mm Petri plate. The box was sealed after compound addition into each 50-mm Petri plate together with 5-250 mg of perlite particles and incubated for 2 days in the dark at 25±1° C. C5 and C6 saturated and α,β-unsaturated cyclic ketones were tested for their nematocidal activity. The J2 nematodes viability was examined following exposure to the cyclic ketone compounds, by a straightforward small-scale nematode extraction method, based on the traditional Baermann funnel method. Briefly, all nematode suspensions were loaded onto 30-μm (AD Sinun Technologies) filters (1.0-1.5 cm height, 1.1-2.0 cm^3 internal area), and the nematodes were washed twice with 300 μL of 0.01 M MES buffer in order to remove any residues. Then, filters holding nematodes were placed into 15 mL Falcon centrifuge tubes, each containing 900 μL of 0.01 M of MES buffer. These filters allow active passage of only living J2s while paralyzed or dead nematodes remain on top of the filter. The whole apparatus including the filter holding the nematodes and the Falcon tubes were placed in the dark for 3 h at 25±1° C. Then, the filters were removed and the viable nematodes, which were able to actively cross the filter toward the 0.01 M of MES buffer, were collected from the Falcon tube and counted using a Nematode Counting Slide (Chalex LLC, Portland, OR, USA) and a SV11 stereomicroscope (Zeiss, Jena, Germany).
Data were analyzed by the JMP 12 software package (SAS Inc., Cary, NC, USA). Mean numbers of viable J2s under various conditions were subjected to one-way analysis of variance (ANOVA), followed by the Tukey-Kramer multiple comparison test, with significance set at P<0.05.

[4] = test system: S. rolfsii; experiment: Fungicidal activity assay on PDA in sealed Petri dish (growth inhibition and mortality); type: cell-based, Sclerotinia rolfsii; conditions: S. rolfsii; for I - Inhibition class: 2 days; for M - Mortality, minimal concentration that killed the fungus / MFC: NA + number = still viable in the highest concentration tested (given as >); for I - Inhibition, minimal concentration that inhibited the growth: concentration to which the class above belongs; for MFC: Agroathelia rolfsii, read-out: M - Mortality, minimal concentration that killed the fungus
Protocol: as §1, with “Each” for “In exemplary procedures, the fungicidial activity of the compounds listed in Table 2 were examined by activity assays as follow: Petri dishes, 90 mm in diameter, with air volume of 80 mL, contained 10-12 mL of growth medium comprising potato dextrose agar (PDA) (Acumedia, Lansing, Michigan, USA) amended with tetracycline at 12 μg/mL. Each”

[5] = test system: Meloidogyne javanica second stage juveniles (J2s); experiment: Nematocidal activity: viability of J2 nematodes after 2 days exposure to the compound in a sealed box; conditions: in vivo
[6] = test system: B. cinerea; experiment: Fungicidal activity assay on PDA in sealed Petri dish (growth inhibition and mortality); type: cell-based, Botrytis cinerea; conditions: for I - Inhibition class: 2 days; for I - Inhibition, minimal concentration that inhibited the growth: concentration to which the class above belongs
Protocol: as §1

[7] = test system: F. oxysporum f. sp. radicis-cucumerium; experiment: as above; type: cell-based, Fusarium oxysporum f. sp. radicis-cucumerinum; conditions: for MFC: Fusarium oxysporum, read-out: M - Mortality, minimal concentration that killed the fungus
Protocol: as §1, with “Each” for “In exemplary procedures, the fungicidial activity of the compounds listed in Table 2 were examined by activity assays as follow: Petri dishes, 90 mm in diameter, with air volume of 80 mL, contained 10-12 mL of growth medium comprising potato dextrose agar (PDA) (Acumedia, Lansing, Michigan, USA) amended with tetracycline at 12 μg/mL. Each”

[8] = test system: R. solani; experiment: microbe, parasite or virus in culture; type: cell-based; conditions: R. solani; for MFC: Rhizoctonia solani, read-out: M - Mortality, minimal concentration that killed the fungus
Protocol: as §1, with “Each” for “In exemplary procedures, the fungicidial activity of the compounds listed in Table 2 were examined by activity assays as follow: Petri dishes, 90 mm in diameter, with air volume of 80 mL, contained 10-12 mL of growth medium comprising potato dextrose agar (PDA) (Acumedia, Lansing, Michigan, USA) amended with tetracycline at 12 μg/mL. Each”

[9] = test system: Tomato plants; experiment: Phytotoxicity on tomato plants in soil, compound on perlite particles; type: in vivo; conditions: one day after treatment
Text: In exemplary procedures, the phytotixicity of trans-2-octenal and 2-cyclopenten-1-one was examined in triplicates for each concentration: 250, 1,000, 4,000, and 20,000 ppm compared to control.

[10] = test system: test fungi; experiment: Fungicidal activity assay on PDA, summaries over the test fungi; type: cell-based; conditions: comparison within the series
Protocol: as §1

[11] = NA + number = still viable in the highest concentration tested (given as >)
[12] = concentration to which the class above belongs

`CC(C)=CCCC(C)=CCCC(C)=CC=O` (single isomer, unassigned) [Farnesal mixture of isomers, Farnesal] was tested. Which “I - Inhibition class” value [1] did it give?
The value was “NI (<50% growth inhibition)”.

What about the “M - Mortality, minimal concentration that killed the fungus” value (from here on “M - Mortality”) [1, 11] of the same compound?
The value was over 125 ppm.

And the “I - Inhibition, minimal concentration that inhibited the growth” value [1]?
Its value is 125 ppm.

What about the “I - Inhibition class” value [2] of the same compound?
Its value is “NI (<50% growth inhibition)”.

What about the “M - Mortality” value [2, 11] of the same compound?
The value was over 125 ppm.

What about the “I - Inhibition, minimal concentration that inhibited the growth” value [2] of the same compound?
Its value is 125 ppm.

What about the “Activity: reduction in J2s viability relative to non exposed control J2s (class)” value [3] of the same compound?
Its value is “N (<50% reduction in viability)”.

And the “I - Inhibition class” value [4]?
Its value is “MI (Medium inhibition - 76-99% of growth inhibition)”.

What about the “M - Mortality” value [4] of the same compound?
Its value is over 125 ppm.

What about the “I - Inhibition, minimal concentration that inhibited the growth” value [4] of the same compound?
The value was 125 ppm.

What about the “Activity: the most effective concentration” value [5] of the same compound?
Its value is “N 250 ppm”.

And the “I - Inhibition class” value [6]?
Its value is “MI (Medium inhibition - 76-99% of growth inhibition)”.

What about the “M - Mortality” value [6, 11] of the same compound?
Its value is over 125 ppm.

What about the “I - Inhibition, minimal concentration that inhibited the growth” value [6] of the same compound?
The value was 12.5 ppm.

With `O=C1CCCCCC1` [Cycloheptanone] as the compound, how does the MFC ([1]; Penicillium digitatum, NA + number = still viable in the highest concentration tested (given as >), read-out: M - Mortality, minimal concentration that killed the fungus) read?
The MFC was 2500 µg/mL.

What about the MFC [7, 11] of the same compound?
Its MFC is over 250 µg/mL.

What about the MFC ([2]; Alternaria alternata, NA + number = still viable in the highest concentration tested (given as >), read-out: M - Mortality, minimal concentration that killed the fungus) of the same compound?
The MFC was 1250 µg/mL.

What about the MFC [8, 11] of the same compound?
The MFC was over 250 µg/mL.

What about the “nematocidal activity in words” value [3] of the same compound?
The value was “nematocidal effects at substantially higher concentrations”.

What about the MFC [4] of the same compound?
The MFC was 2500 µg/mL.

And the MFC ([6]; Botrytis cinerea, NA + number = still viable in the highest concentration tested (given as >), read-out: M - Mortality, minimal concentration that killed the fungus)?
Its MFC is 1250 µg/mL.

With trans-2-heptanol as the compound, how does the “I - Inhibition class” value [1] read?
Its value is “SI (Strong inhibition - 100% of growth inhibition compared to control.)”.

What about the “M - Mortality” value [1, 11] of the same compound?
The value was 1250 ppm.

And the “I - Inhibition, minimal concentration that inhibited the growth” value [1]?
The value was 125 ppm.

And the “I - Inhibition class” value [2]?
Its value is “SI (Strong inhibition - 100% of growth inhibition compared to control.)”.

And the “M - Mortality” value [2, 11]?
The value was 500 ppm.

And the “I - Inhibition, minimal concentration that inhibited the growth” value [2]?
The value was 125 ppm.

And the “Activity: reduction in J2s viability relative to non exposed control J2s (class)” value [3]?
Its value is “L (51-75% reduction in viability)”.

And the “Activity: the most effective concentration” value [3]?
Its value is 500 ppm.

What about the “I - Inhibition class” value [4] of the same compound?
The value was “SI (Strong inhibition - 100% of growth inhibition compared to control.)”.

And the “M - Mortality” value [4]?
Its value is 500 ppm.

And the “I - Inhibition, minimal concentration that inhibited the growth” value [4]?
The value was 125 ppm.

And the “I - Inhibition class” value [6]?
The value was “SI (Strong inhibition - 100% of growth inhibition compared to control.)”.

What about the “M - Mortality” value [6, 11] of the same compound?
The value was 500 ppm.

What about the “I - Inhibition, minimal concentration that inhibited the growth” value [6] of the same compound?
The value was 125 ppm.

Which results are given for `O=C1C=CCC1` [2-cyclopenten-1-one]?
MFC [7, 11]: > 25 µg/mL; phytotoxicity ([9]; 250 ppm): No phytotoxicity; phytotoxicity ([9]; 1,000 ppm): phytotoxic; also recorded: Low phytotoxicity; phytotoxicity ([9]; 4,000 ppm): phytotoxic; also recorded: Medium phytotoxicity; phytotoxicity ([9]; 20,000 ppm): phytotoxic; also recorded: Strong phytotoxicity; MFC [8, 11]: > 25 µg/mL; fungicidal activity in words [10]: fungicidal activity, to some extent; MFC [4]: > 25 µg/mL

With `O=C1CCCc2ccccc21` [α-Tetralone] as the compound, how does the “I - Inhibition class” value ([7]; 2 days) read?
Its value is “NI (<50% growth inhibition)”.

What about the “M - Mortality” value [7, 11] of the same compound?
The value was over 25 ppm.

What about the “I - Inhibition, minimal concentration that inhibited the growth” value [7, 12] of the same compound?
Its value is 25 ppm.

What about the “I - Inhibition class” value ([8]; 2 days) of the same compound?
The value was “NI (<50% growth inhibition)”.

And the “M - Mortality” value [8, 11]?
The value was over 25 ppm.

What about the “I - Inhibition, minimal concentration that inhibited the growth” value [8, 12] of the same compound?
The value was 25 ppm.

What about the “fungicidal activity in words” value [10] of the same compound?
The value was “further reduced fungicidal activity”.

And the “Activity: the most effective concentration” value [3]?
Its value is 25 ppm.

And the “I - Inhibition class” value [4]?
Its value is “NI (<50% growth inhibition)”.

And the “M - Mortality” value [4]?
The value was over 25 ppm.

What about the “I - Inhibition, minimal concentration that inhibited the growth” value [4] of the same compound?
Its value is 25 ppm.

Which results are given for R-(−)-Carvone?
I - Inhibition class [1]: MI (Medium inhibition - 76-99% of growth inhibition); M - Mortality, minimal concentration that killed the fungus [1, 11]: > 1250 ppm; I - Inhibition, minimal concentration that inhibited the growth [1]: 625 ppm; I - Inhibition class [2]: SI (Strong inhibition - 100% of growth inhibition compared to control.); M - Mortality, minimal concentration that killed the fungus [2, 11]: > 1250 ppm; I - Inhibition, minimal concentration that inhibited the growth [2]: 125 ppm; Activity: the most effective concentration [3]: 250 ppm; I - Inhibition class [4]: MI (Medium inhibition - 76-99% of growth inhibition); M - Mortality, minimal concentration that killed the fungus [4]: > 1250 ppm; I - Inhibition, minimal concentration that inhibited the growth [4]: 125 ppm; I - Inhibition class [6]: MI (Medium inhibition - 76-99% of growth inhibition); M - Mortality, minimal concentration that killed the fungus [6, 11]: > 1250 ppm; I - Inhibition, minimal concentration that inhibited the growth [6]: 25 ppm

Which results are given for `O=C1CCCCC1` [Cyclohexanone]?
MFC [7, 11]: > 250 µg/mL; MFC [8, 11]: > 250 µg/mL; nematocidal activity in words [3]: nematocidal effects at substantially higher concentrations; MFC [4]: 500 µg/mL
